# Assay results as given in US20250101487A1, “SELF-DILUTING MICROFLUIDIC DEVICE FOR RAPID ANTIMICROBIAL SUSCEPTIBILITY TESTS” (The University of Hong Kong, priority 2023, published 2025).
# Where two headings read alike, the source gives them in different places.
# Columns and labels:
# [1] = tested on: K. pneumoniae; experiment: SDFAST antimicrobial susceptibility test (WST-8 colorimetric); assay type: cell-based; settings: Klebsiella pneumoniae, WST-8, 37° C., 6 hours
# Protocol: (§1) SDFAST (Self Dilution for Faster Antimicrobial Susceptibility Testing) involved a relatively simple mechanism with three phases: loading, droplet formation, and mixing (FIG. 3A). In the loading phase, a bacteria sample with a colorimetric indicator (CCK-8, cell counting kit-8) was injected into the constant-volume channels, while the antibiotic solution is injected into the varied-volume channels. In the droplet formation phase, the upper chip was slipped, forming droplets. In the mixing phase, the bacteria sample was mixed with the antibiotic solution. […] The well before the abrupt color change represented the minimum inhibitory concentration (MIC) of the bacteria with the antibiotic.
# (§2) The solutions were injected using a micropipette with 0.1-20 μL tips. For lines with constant volume, 20 μL solution was required to fill up one entire line, while for lines with varied volumes, 10 μL solution was required. The excess solution was expelled from the hole adjacent to the end side of each line and could be wiped with KimWipes. After filling the wells, the chips were slid so that the lower line aligned and overlapped with the upper line, allowing the solutions to mix. Subsequently, the chips were placed inside a Petri dish containing FC-40, and the dish was sealed with parafilm. The dish was then incubated at 37° C. for 6 hours before color analysis using ImageJ.
# The bacteria were cultured on an agar plate and incubated in Mueller-Hinton Broth (MHB, Sigma-Aldrich) at 37° C. overnight. The culture solution was then diluted 1000 times with MHB and mixed with 5% WST-8 indicator (Beyotime). […]
# (§3) In the present invention, the SDFAST was operated with the water-soluble tetrazolium salt-8 (WST-8) assay, in which four prevalent bacteria, Acinetobacter baumannii (A. baumannii), Escherichia coli (E. coli), Klebsiella pneumoniae (K. pneumoniae) and clinical samples containing Staphylococcus species were tested under various antibiotics. […] After the identification, the MIC value was calculated based on dilution rates.
# [2] = tested on: A. baumannii; experiment: Broth microdilution; assay type: cell-based; settings: Acinetobacter baumannii
# Protocol: (§4) Currently, AST is mostly commonly conducted by the broth microdilution method^3,4, in which the antibiotic solution of the desired concentration is prepared, injected into a microwell, and diluted serially from well to well. Afterward, an equal volume of bacteria solution is introduced to every microwell with antibiotics of varied concentrations, and the well-plate is incubated overnight. In the end, MIC is determined by observing and analyzing the turbidity of each well, and the well with the lowest concentration of antibiotic showing no turbidity represents the MIC^5. […] Another common yet less complex method is disc diffusion^7. In this technique, bacteria are initially cultured on Mueller-Hinton agar. Subsequently, antimicrobial discs are positioned on the agar plate, and the plate is left to incubate overnight. The diameters of inhibition zones, the regions where bacteria are being killed, are then measured, and these values are compared to reference standards to ascertain susceptibility. This method is used for qualitative determination of bacterial susceptibility, in which the bacteria are determined to be “resistant”, “intermediate,” or “susceptible” from the results. Despite its widespread use, this method has several drawbacks. […] Additionally, it is time-consuming, requiring 16 to 24 hours to produce results, and must be conducted in a laboratory^8,9. Consequently, an alternative approach that is portable, user-friendly, and time-efficient needs to be developed for rapid MIC determination.
# [3] = tested on: E. coli; experiment: Broth microdilution; assay type: cell-based; settings: Escherichia coli
# Protocol: as §4
# [4] = tested on: K. pneumoniae; experiment: Broth microdilution; assay type: cell-based; settings: Klebsiella pneumoniae
# Protocol: as §4
# [5] = tested on: A. baumannii; experiment: SDFAST antimicrobial susceptibility test (WST-8 colorimetric); assay type: cell-based; settings: Acinetobacter baumannii, WST-8, 37° C., 6 hours
# Protocol: as §1, §2
# (§5) The bacteria were cultured on an agar plate and incubated in Mueller-Hinton Broth (MHB, Sigma-Aldrich) at 37° C. overnight. The culture solution was then diluted 1000 times with MHB and mixed with 5% WST-8 indicator (Beyotime). The antibiotic solutions were prepared by dissolving the desired amount of antibiotics (solid or liquid) into DI water, and the solutions were diluted by DI water according to the desired concentrations to be tested.
# as §3, with “The colourless or very pale yellow well before” for “After”, “abrupt change in each line represented” for “identification,”, “corresponding MIC, which could be easily identified by the naked eyes.” for “MIC value was calculated based on dilution rates.”
# [6] = tested on: E. coli; experiment: as above; assay type: cell-based; settings: Escherichia coli, WST-8, 37° C., 6 hours
# Protocol: as §1, §2, §5
# as §3, with “The colourless or very pale yellow well before” for “After”, “abrupt change in each line represented” for “identification,”, “corresponding MIC, which could be easily identified by the naked eyes.” for “MIC value was calculated based on dilution rates.”
# [7] = tested on: S. haemolyticus; experiment: SDFAST antimicrobial susceptibility test (WST-8), clinical Staphylococcus strains; assay type: cell-based; settings: S. haemolyticus 901622-2
# Protocol: as §1, §2
# (§6) They were obtained from the Department of Microbiology, Queen Mary Hospital, Hong Kong (Patient samples). Vancomycin hydrochloride solution (100 mg/mL in DMSO, Sigma-Aldrich) was diluted with DI water to desired concentrations for each strain. The results were compared to those obtained by E-test from the Department of Microbiology.
# [8] = tested on: S. caprae; experiment: as above; assay type: cell-based
# Protocol: as §1, §2, §6
# [9] = tested on: S. capitis; experiment: as above; assay type: cell-based
# Protocol: as §1, §2, §6
# [10] = tested on: S. aureus; experiment: as above; assay type: cell-based
# Protocol: as §1, §2, §6
# [11] = tested on: S. capitis; settings: cited from earlier work
# [12] = tested on: S. haemolyticus; settings: S. haemolyticus 901622-2; cited from earlier work
# [13] = tested on: S. aureus; settings: cited from earlier work
# [14] = tested on: S. caprae; settings: cited from earlier work
compound,measurement,setting,value
"O=C(O)c1cn(C2CC2)c2cc(N3CCNCC3)c(F)cc2c1=O [CIP, Ciprofloxacin]",MIC,[1],6.25 µg/mL
"CC(C)(O/N=C(\C(=O)N[C@@H]1C(=O)N2C(C(=O)[O-])=C(C[n+]3ccccc3)CS[C@H]12)c1csc(N)n1)C(=O)O [CTZ, Ceftazidime]",MIC,[1],62.5 µg/mL
same,MIC,[2],62.5 to 125 µg/mL
same,MIC,[3],62.5 µg/mL
same,MIC,[4],125 µg/mL
same,MIC,[5],62.5 µg/mL
same,MIC,[6],62.5 µg/mL
"C[C@H]1COc2c(N3CCN(C)CC3)c(F)cc3c(=O)c(C(=O)O)cn1c23 [LEV, Levofloxacin]",MIC,[1],50 µg/mL
same,MIC,[2],100 µg/mL
same,MIC,[3],12.5 µg/mL
same,MIC,[4],50 µg/mL
same,MIC,[5],100 µg/mL
same,MIC,[6],12.5 µg/mL
CN[C@H](CC(C)C)C(=O)N[C@H]1C(=O)N[C@@H](CC(N)=O)C(=O)N[C@H]2C(=O)N[C@H]3C(=O)N[C@H](C(=O)N[C@H](C(=O)O)c4cc(O)cc(O)c4-c4cc3ccc4O)[C@H](O)c3ccc(c(Cl)c3)Oc3cc2cc(c3O[C@@H]2O[C@H](CO)[C@@H](O)[C@H](O)[C@H]2O[C@H]2C[C@](C)(N)[C@H](O)[C@H](C)O2)Oc2ccc(cc2Cl)[C@H]1O [Vancomycin],MIC,[7],1.56 µg/mL
same,MIC,[8]; S. caprae 901820-2,1.56 µg/mL
same,MIC,[8]; S. caprae 902278-1,0.195 µg/mL
same,MIC,[8]; S. caprae 903211,0.5 µg/mL
same,MIC,[8]; S. caprae 903522,1.11 µg/mL
same,MIC,[9]; S. capitis 901820-1,1 µg/mL
same,MIC,[9]; S. capitis 902278-2,1 µg/mL
same,MIC,[9]; S. capitis 902530-2,0.55 µg/mL
same,MIC,[10]; S. aureus 900967,1 µg/mL
same,MIC,[10]; S. aureus 901089,1 µg/mL
same,MIC,[10]; S. aureus 901763,0.5 µg/mL
same,MIC,[10]; S. aureus 902126,0.77 to 1.4 µg/mL
same,MIC,[10]; S. aureus 902154,0.94 µg/mL
same,MIC,[10]; S. aureus 902395,0.5 µg/mL
same,MIC,[10]; S. aureus 903245,1.4 µg/mL
same,MIC,[10]; S. aureus 932674,0.77 to 1.4 µg/mL
same,"MIC, E-test (reference value)",[11]; S. capitis 901820-1,1 µg/mL
same,"MIC, E-test (reference value)",[11]; S. capitis 902278-2,1 µg/mL
same,"MIC, E-test (reference value)",[11]; S. capitis 902530-2,0.5 µg/mL
same,"MIC, E-test (reference value)",[12],1.5 µg/mL
same,"MIC, E-test (reference value)",[13]; S. aureus 900967,1 µg/mL
same,"MIC, E-test (reference value)",[13]; S. aureus 901089,1 µg/mL
same,"MIC, E-test (reference value)",[13]; S. aureus 901763,0.5 µg/mL
same,"MIC, E-test (reference value)",[13]; S. aureus 902126,0.75 µg/mL
same,"MIC, E-test (reference value)",[13]; S. aureus 902154,0.5 µg/mL
same,"MIC, E-test (reference value)",[13]; S. aureus 902395,0.5 µg/mL
same,"MIC, E-test (reference value)",[13]; S. aureus 903245,0.75 µg/mL
same,"MIC, E-test (reference value)",[13]; S. aureus 932674,0.75 µg/mL
same,"MIC, E-test (reference value)",[14]; S. caprae 901820-2,1.5 µg/mL
same,"MIC, E-test (reference value)",[14]; S. caprae 902278-1,0.19 µg/mL
same,"MIC, E-test (reference value)",[14]; S. caprae 903211,0.5 µg/mL
same,"MIC, E-test (reference value)",[14]; S. caprae 903522,1 µg/mL
